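Grown in 96-well plates, cells were treated for 48 hours with each compound at five concentrations. Insufficient inhibition: endpoint recorded as highest concentration tested. Abbreviation: GI50, concentration required for 50% inhibition of growth. TGI denotes the concentration required for complete inhibition of growth.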 A value given as a limit tells only on which side of the number the result lay.

Experiment in all cases: inhibition of tumour cell growth, NCI panel, 48 h
Experiment [1] has as its system OVCAR-8 ovarian.
The subject of experiment [2] is SF-268 CNS.
In experiment [3] the test system is KM12 colon.
Experiment [4] has as its system UACC-62 melanoma.
In experiment [5] the test system is T-47D breast.
In experiment [6] the test system is A498 renal.
The subject of experiment [7] is HT29 colon.
Experiment [8] has as its system U251 CNS.
The test system of experiment [9] is TK-10 renal.
In experiment [10] the test system is OVCAR-4 ovarian.

Consider `COc1cc2c(c(OC)c1OC)-c1c(cc3c(c1OC)OCO3)CC(C)C(C)(O)C2OC(=O)c1ccccc1` (configuration not stated), for which the TGI in experiment [1], in [2], in experiment [3], in [4], in [5] and in experiment [6] was more than 100 µM each time. Also, the TGI is 75.6 µM in experiment [7], more than 100 µM in experiment [8], more than 100 µM in experiment [9] and more than 100 µM in experiment [10].

For the compound `CCOC1OC(=O)[C@H]2[C@@H]1[C@@H]1CC[C@H]2O1` (some centres not stated), the GI50 is more than 100 µM in experiment [1]; more than 100 µM in [2]; more than 76.2 µM in experiment [3]; more than 100 µM in [4]; more than 59.1 µM in experiment [5]; more than 100 µM in experiment [6]. The GI50 is 24.8 µM in [7], more than 100 µM in experiment [8], more than 100 µM in experiment [9] and more than 100 µM in [10]. The TGI in experiment [1], in [2], in [3], in experiment [4], in [5] and in experiment [6] was more than 100 µM in each case. Moreover, the TGI in experiment [7] was more than 76.3 µM; in [8], more than 100 µM; in experiment [9], more than 100 µM; in experiment [10] it was more than 100 µM.

Regarding `N/C(=N\c1nc2ccccc2s1)NC(=NC1CCCCC1)NC1CCCCC1`, the GI50 in experiment [1] is 1.97 µM; in [2] it was 1.81 µM; in experiment [3], 1.94 µM; in experiment [4], 1.61 µM; in experiment [5], 1.84 µM; in experiment [6], 1.71 µM. The GI50 in experiment [7] is 1.63 µM; in [8], 1.68 µM; in experiment [9], 1.64 µM; in experiment [10], 1.63 µM. The TGI stood at 4.98 µM in [1]; 3.65 µM in experiment [2]; 3.78 µM in experiment [3]; 3.01 µM in [4]; 4.15 µM in [5]; 3.11 µM in experiment [6]. In addition, the TGI turned out to be 3.66 µM in experiment [7], 3.48 µM in experiment [8], 3.28 µM in [9] and 3.29 µM in experiment [10].

As for `COc1ccc2c(c1)C(=O)c1c-2n(CCCN)c(=O)c2cc([N+](=O)[O-])ccc12`, the GI50 in [2] is less than 0.01 µM; in experiment [3], 1.5 µM; in experiment [4], less than 0.01 µM; in [5] it was less than 0.01 µM; in experiment [6], less than 0.01 µM; in [8] it was less than 0.01 µM. The GI50 in experiment [9] is 3.33 µM. For the same compound, the TGI was less than 0.01 µM in experiment [2]; 3.46 µM in [3]; less than 0.01 µM in [4]; 1.86 µM in experiment [5]; less than 0.01 µM in [6]; 10 µM in [9].

On to `Cc1oc2c(c1C(=O)N1CC[C@@H](N)C1)C(=O)c1c(c(O)c3ccccc3c1O)C2=O`, for which the GI50 is 1.25 µM in experiment [1]; 1.83 µM in experiment [2]; 2.98 µM in [3]; 4.46 µM in experiment [4]; 0.863 µM in experiment [5]; 3.38 µM in [6]. Also, the GI50 in experiment [7] was 1.68 µM; in experiment [8] it was 1.27 µM; in [9], 3.07 µM; in experiment [10] it was 2.92 µM. Besides, the TGI in [1] amounted to 4.65 µM; in experiment [2], 10.6 µM; in experiment [3] it was 14.4 µM; in experiment [4], 19.6 µM; in experiment [5], 7.86 µM; in [6] it was 18.9 µM. Besides, the TGI in experiment [7] is 6.66 µM; in [8], 9.27 µM; in experiment [9] it was 16.3 µM; in [10], 11.8 µM.

On to `O=C(Nc1cnc(C(F)(F)F)cn1)c1cc(Cl)ccc1O`, for which the GI50 in experiment [1] was 0.365 µM; in experiment [2] it was 0.296 µM; in experiment [3] it was 0.343 µM; in experiment [4], 0.191 µM; in experiment [5], 0.238 µM; in experiment [6], 0.235 µM. In addition, the GI50 in experiment [7] is 2.56 µM; in experiment [8], 0.352 µM; in experiment [9], 0.465 µM; in [10], 0.254 µM. Further, the TGI in [1] amounted to 61.8 µM; in experiment [2], 94.1 µM; in experiment [3], 16.2 µM; in experiment [4] it was 1.48 µM; in [5], 0.851 µM; in experiment [6], 0.639 µM. The TGI in experiment [7], in experiment [8], in experiment [9] and in [10] was more than 100 µM each time.

In the case of `Cn1nnc2c(C(N)=O)ncn2c1=O`, the TGI in experiment [1], in experiment [2], in experiment [3], in experiment [4], in experiment [5] and in experiment [6] was more than 100 µM throughout. For the same compound, the TGI in experiment [7], in experiment [8], in experiment [9] and in experiment [10] was more than 100 µM throughout. Besides, the GI50 in experiment [6] was more than 100 µM.

As for `COc1ccc2c(c1)C(=O)c1c-2c(N2CCNCC2)nc2ccccc12`, the GI50 was 5.81 µM in experiment [1]; 2.14 µM in experiment [2]; 2.01 µM in [3]; 3.55 µM in experiment [4]; 1.96 µM in experiment [5]; 7.4 µM in experiment [6]. Besides, the GI50 was 1.49 µM in experiment [7], 4.6 µM in experiment [8], 8.36 µM in experiment [9] and 9.93 µM in experiment [10]. Also, the TGI in experiment [1] stood at 23.4 µM; in experiment [2], 11.9 µM; in [3], 4.84 µM; in experiment [4], 12.1 µM; in experiment [5], 4.41 µM; in experiment [6] it was 21.1 µM. Besides, the TGI amounted to 3.34 µM in [7], 16.6 µM in [8], 23.6 µM in experiment [9] and 27.1 µM in experiment [10].

With `Oc1c(Cl)cc(Cl)c2cccnc12`, the GI50 in experiment [1] is 2.75 µM; in [2], 3.39 µM; in [3], 4.58 µM; in experiment [4] it was 1.79 µM; in experiment [5], 2.35 µM; in experiment [6], 2.92 µM. For the same compound, the GI50 in experiment [7] was 4.99 µM; in experiment [8] it was 2.67 µM; in experiment [9], 5.56 µM; in experiment [10], 2.32 µM. In addition, the TGI in [1] was 54.6 µM; in [2] it was more than 100 µM; in [3], 16.7 µM; in experiment [4], 5.04 µM; in experiment [5] it was 12 µM; in experiment [6] it was 12.1 µM. In addition, the TGI came to 18 µM in [7], 55 µM in [8], 30.8 µM in experiment [9] and 7.85 µM in [10].

On to `Cc1cc(NC(=O)c2cnc(N3CCN(CCOCCOCCOCCOCCC(=O)N[C@H](C(=O)N4C[C@H](O)C[C@H]4C(=O)N[C@@H](C)c4ccc(-c5scnc5C)cc4)C(C)(C)C)CC3)cn2)c2ncccc2c1`, for which the GI50 is 3.38 µM in experiment [1]; 3.02 µM in [2]; 1.71 µM in experiment [4]; 3.03 µM in [5]; 5.06 µM in experiment [6]; 2.54 µM in experiment [7]. The GI50 is 2.74 µM in experiment [8], 10.7 µM in experiment [9] and 4.49 µM in experiment [10]. Besides, the TGI in [1] was more than 100 µM; in experiment [2] it was 18.3 µM; in experiment [4], 3.36 µM; in experiment [5], 17.9 µM; in experiment [6] it was 29 µM; in [7], 7.63 µM. The TGI in [8] was 7.92 µM; in experiment [9], 53.4 µM; in experiment [10], 25 µM.

`CN(c1ccc(C#N)c(Cl)c1)C1CCC(NC(=O)c2ccc(N3CCN(C4CN(c5ccc6c(c5)C(=O)N(C5CCC(=O)NC5=O)C6=O)C4)CC3)cc2)CC1` (configuration not stated): the GI50 in experiment [1], in [2], in [3], in experiment [4], in experiment [5] and in experiment [6] was more than 100 µM in each case. Further, the GI50 in experiment [7] was more than 100 µM; in [8], 61.2 µM; in experiment [9] it was more than 100 µM; in [10], more than 100 µM. In addition, the TGI in [1], in experiment [2], in experiment [3], in experiment [4], in experiment [5] and in experiment [6] was more than 100 µM in each case. Besides, the TGI in experiment [7], in experiment [8], in experiment [9] and in [10] was more than 100 µM throughout.

As to `Nc1n[nH]c(N)c1N=Nc1ccc(O)cc1`, the GI50 in experiment [1] is 18 µM; in [2] it was 20.5 µM; in experiment [3], 17.2 µM; in [4], 11 µM; in experiment [5] it was 14.2 µM; in experiment [6], 18.2 µM. For the same compound, the GI50 in experiment [7] was 29.7 µM; in [8], 21.2 µM; in experiment [9] it was 25.7 µM; in experiment [10], 19 µM. The TGI in experiment [1] is more than 100 µM; in experiment [2] it was 82.6 µM; in [3] it was 74.1 µM; in experiment [4], 36.4 µM; in [5], 87.5 µM; in experiment [6], 43.7 µM. Moreover, the TGI in experiment [7] is more than 100 µM; in [8], 86.2 µM; in [9], 70.4 µM; in experiment [10], 74.7 µM.

For the compound `COc1cc2c(cc1-c1coc3cc(OCC=C(C)C)ccc3c1=O)OCO2`, the TGI was more than 100 µM in [2]; 52.4 µM in [3]; more than 100 µM in experiment [4]; more than 100 µM in experiment [5]; more than 100 µM in experiment [6]; more than 100 µM in experiment [8]. For the same compound, the TGI in experiment [9] and in [10] was more than 100 µM throughout.

On to `COc1ccc(-c2ccc(/C=N/n3c(COc4ccccc4Cl)n[nH]c3=S)o2)c([N+](=O)[O-])c1`, for which the GI50 was 21.3 µM in experiment [1]; 32.3 µM in experiment [2]; 20.9 µM in [3]; 21.8 µM in experiment [5]; 14.4 µM in experiment [6]; 41.1 µM in experiment [7]. Besides, the GI50 was 22 µM in experiment [8], 13.2 µM in experiment [9] and 45.4 µM in [10]. Further, the TGI was 55.4 µM in [1]; 91.7 µM in experiment [2]; 49.5 µM in experiment [3]; 86.2 µM in [5]; 40.6 µM in experiment [6]; more than 100 µM in [7]. Further, the TGI in [8] is 57.5 µM; in [9], 39.5 µM; in experiment [10] it was more than 100 µM.

Turning to `O=C(Nc1ccccc1Cl)c1cccc(NC2=C(Cl)C(=O)N(Cc3ccccc3)C2=O)c1`, the GI50 in experiment [1] is 20.8 µM; in experiment [2], 18.6 µM; in [3] it was 0.0371 µM; in [4] it was 7.36 µM; in [5], more than 100 µM; in experiment [6] it was 24.6 µM. Further, the GI50 in experiment [7] was 19.8 µM; in experiment [8] it was 21 µM; in experiment [10] it was 3.63 µM. Besides, the TGI in [1] was more than 100 µM; in experiment [2], 58.6 µM; in [3], 9.86 µM; in experiment [4] it was 51 µM; in experiment [5], more than 100 µM; in experiment [6] it was 89.9 µM. Moreover, the TGI in experiment [7] was more than 100 µM; in experiment [8], more than 100 µM; in experiment [10] it was 75.8 µM.

Consider `COc1ccc2c(c1)/C(=C\c1c[nH]c3ccc(OC)cc13)C(=O)N2`, for which the GI50 in experiment [2] is 3.61 µM; in [3] it was 0.32 µM; in experiment [4] it was 2.76 µM; in experiment [5] it was 2.99 µM; in [6] it was 1.82 µM; in [7] it was 4.07 µM. In addition, the GI50 in [9] is 3.68 µM; in [10], 3.5 µM. For the same compound, the TGI was 15.3 µM in experiment [2]; 10.8 µM in [3]; 11.3 µM in experiment [4]; 13.4 µM in [5]; 6.47 µM in [6]; 14.9 µM in experiment [7]. In addition, the TGI in [9] amounted to 13.3 µM; in experiment [10], 22.8 µM.
